Patent US20020137929A1, “1 - (3-heterocyclylphenyl) isothiourea, -isourea, -guanidine and -amidine herbicidal agents” (Intellectual Property Department, BASF Aktiengesellschaft, priority 1998, published 2002)

Experiments:
AMBEL (Ragweed, Common) = assay: Postemergence herbicidal evaluation; assay type: in vivo, Ambrosia artemisifolia; details: postemergence
Procedure, shortened: (§1)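 Scores (0–9) reflect plant stand, vigor, malformation, size, chlorosis and general appearance relative to control, read 4 to 5 weeks after treatment and averaged where tests were repeated. Application: about 0.0156–0.500 kg/ha sprayed at 40 psi onto two-week seedlings.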

CASOB (Sicklepod) = assay: Postemergence herbicidal evaluation; assay type: in vivo, Cassia obtusifolia; details: postemergence
Procedure, shortened: as §1

GALAP (Galium) [1] = assay: Postemergence herbicidal evaluation; assay type: in vivo, Galium aparine; details: postemergence
Procedure, shortened: as §1

[2] = test system: GLXMAW (Soybean, Williams); assay: Postemergence herbicidal evaluation; assay type: in vivo, Glycine max, (L.) Merr. cv Williams; details: postemergence
Procedure, shortened: as §1

[3] = test system: TRZAWR (Wheat, Winter, cv Riband); assay: Postemergence herbicidal evaluation; assay type: in vivo, Triticum aestivum; details: postemergence
Procedure, shortened: as §1

GALAP (Galium) [4] = assay: Preemergence herbicidal evaluation; assay type: in vivo, Galium aparine; details: rated 4-5 weeks after treatment; for GALAP rating: preemergence, 0-9 scale
Procedure, shortened: (§2)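 Rating at 4–5 wk post-spray on a 0–9 visual scale vs control. Application: aqueous acetone, ~0.0156–0.500 kg/ha, to soil surface after seeding, preemergence.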

SETVI (Foxtail, Green) = assay: Preemergence herbicidal evaluation; assay type: in vivo, Setaria viridis; details: rated 4-5 weeks after treatment; for SETVI rating: preemergence, 0-9 scale
Procedure, shortened: as §2

ORYSAT (Rice, Tebonnet) = assay: Preemergence herbicidal evaluation; assay type: in vivo, Oryza sativa, (L.) Tebonnet; details: rated 4-5 weeks after treatment; for ORYSAT rating: preemergence, 0-9 scale
Procedure, shortened: as §2

[5] = test system: ECHORC (Watergrass (Calif.)); assay: Preemergence weed control under flooded paddy conditions; assay type: in vivo, Echinochloa oryzoides; details: rated 3-4 weeks after treatment
Procedure, shortened: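 Silt loam, seeds in top 0.5 cm; flood held 1.5-3 cm; test cpd as acetone/water 50/50 into flood water, ~0.0313-0.500 kg/ha a.i.; greenhouse 3-4 wk; visual 0-9 score vs control.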

CYPSE (Flatsedge) = assay: as above; assay type: in vivo, Cyperus serotinus; details: rated 3-4 weeks after treatment
Procedure, shortened: (§3)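 Values are visual 0-9 scores against a control for a preemergence application into paddy flood water at about 0.0313 to 0.500 kg/ha. Greenhouse duration was three to four weeks.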

MOOVA (Monochoria) = assay: as above; assay type: in vivo, Monochoria vaginalis; details: rated 3-4 weeks after treatment
Procedure, shortened: as §3

[6] = test system: SAGPY (Arrowhead (Pygmaea)); assay: as above; assay type: in vivo, Sagittaria pygmaea; details: rated 3-4 weeks after treatment
Procedure, shortened: as §3

[7] = test system: ECHORC (Watergrass (Calif.)); assay: Postemergence weed control under flooded paddy conditions; assay type: in vivo, Echinochloa oryzoides; details: postemergence weeds, rated 3 to 4 weeks after treatment
Procedure, shortened: (§4)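 Containers holding 3–5 cm weeds and rice at 1.5–2.5 leaves are flooded to 1.5–3 cm above soil. Compound in 50/50 v/v aqueous/acetone is then added directly to the water, about 0.0313–0.500 kg/ha. Plants are kept in the greenhouse and rated 0–9 visually at 3–4 weeks.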

[8] = test system: SAGPY (Arrowhead (Pygmaea)); assay: as above; assay type: in vivo, Sagittaria pygmaea; details: postemergence weeds, rated 3 to 4 weeks after treatment
Procedure, shortened: as §4

SMILES: C=CCN1C(=O)C(CC(=O)NS(=O)(=O)CC)SC1=Nc1cc(-n2c(=O)cc(C(F)(F)F)n(C)c2=O)c(F)cc1Cl (stereo not shown) [Compound 104, 3-Allyl-2-{{2-chloro-5-[3,6-dihydro-3-methyl-2,6-dioxo-4-(trifluoromethyl)-1(2H)-pyrimidinyl]-4-fluorophenyl}imino}-N-(ethylsulfonyl)-4-oxo-5-thiazolidineacetamide]
- Herbicidal rating AMBEL (AMBEL (Ragweed, Common); rate 0.0156 kg/ha): 3.0
- Herbicidal rating AMBEL (AMBEL (Ragweed, Common); rate 0.0313 kg/ha): 9.0
- Herbicidal rating AMBEL (AMBEL (Ragweed, Common); rate 0.0625 kg/ha): 9.0
- Herbicidal rating AMBEL (AMBEL (Ragweed, Common); rate 0.1250 kg/ha): 9.0
- Herbicidal rating CASOB (CASOB (Sicklepod); rate 0.0156 kg/ha): 0.0
- Herbicidal rating CASOB (CASOB (Sicklepod); rate 0.0313 kg/ha): 0.0
- Herbicidal rating CASOB (CASOB (Sicklepod); rate 0.0625 kg/ha): 0.0
- Herbicidal rating CASOB (CASOB (Sicklepod); rate 0.1250 kg/ha): 1.0
- Herbicidal rating GALAP (GALAP (Galium) [1]; rate 0.0156 kg/ha): 0.0
- Herbicidal rating GALAP (GALAP (Galium) [1]; rate 0.0313 kg/ha): 0.0
- Herbicidal rating GALAP (GALAP (Galium) [1]; rate 0.0625 kg/ha): 1.0
- Herbicidal rating GALAP (GALAP (Galium) [1]; rate 0.1250 kg/ha): 2.0
- Herbicidal rating GLXMAW ([2]; rate 0.0156 kg/ha): 4.5
- Herbicidal rating GLXMAW ([2]; rate 0.0313 kg/ha): 5.5
- Herbicidal rating GLXMAW ([2]; rate 0.0625 kg/ha): 7.0
- Herbicidal rating GLXMAW ([2]; rate 0.1250 kg/ha): 8.5
- Herbicidal rating TRZAWR ([3]; rate 0.0156 kg/ha): 3.0
- Herbicidal rating TRZAWR ([3]; rate 0.0313 kg/ha): 3.0
- Herbicidal rating TRZAWR ([3]; rate 0.0625 kg/ha): 4.0
- Herbicidal rating TRZAWR ([3]; rate 0.1250 kg/ha): 4.0
- GALAP rating (GALAP (Galium) [4]; 0.0625 kg/ha): 0.0
- GALAP rating (GALAP (Galium) [4]; 0.1250 kg/ha): 0.0
- GALAP rating (GALAP (Galium) [4]; 0.2500 kg/ha): 0.0
- GALAP rating (GALAP (Galium) [4]; 0.5000 kg/ha): 6.0
- SETVI rating (SETVI (Foxtail, Green); 0.0625 kg/ha): 0.0
- SETVI rating (SETVI (Foxtail, Green); 0.1250 kg/ha): 0.0
- SETVI rating (SETVI (Foxtail, Green); 0.2500 kg/ha): 0.0
- SETVI rating (SETVI (Foxtail, Green); 0.5000 kg/ha): 6.0
- ORYSAT rating (ORYSAT (Rice, Tebonnet); 0.0625 kg/ha): 0.0
- ORYSAT rating (ORYSAT (Rice, Tebonnet); 0.1250 kg/ha): 0.0
- ORYSAT rating (ORYSAT (Rice, Tebonnet); 0.2500 kg/ha): 0.0
- ORYSAT rating (ORYSAT (Rice, Tebonnet); 0.5000 kg/ha): 0.0
- ECHORC herbicidal effect rating ([5]; 0.0313 kg/ha): 4.0
- ECHORC herbicidal effect rating ([5]; 0.0625 kg/ha): 5.0
- ECHORC herbicidal effect rating ([5]; 0.1250 kg/ha): 6.0
- ECHORC herbicidal effect rating ([5]; 0.2500 kg/ha): 6.0
- CYPSE herbicidal effect rating (CYPSE (Flatsedge); 0.0313 kg/ha): 0.0
- CYPSE herbicidal effect rating (CYPSE (Flatsedge); 0.1250 kg/ha): 0.0
- CYPSE herbicidal effect rating (CYPSE (Flatsedge); 0.2500 kg/ha): 0.0
- MOOVA herbicidal effect rating (MOOVA (Monochoria); 0.0313 kg/ha): 7.0
- MOOVA herbicidal effect rating (MOOVA (Monochoria); 0.0625 kg/ha): 9.0
- MOOVA herbicidal effect rating (MOOVA (Monochoria); 0.1250 kg/ha): 9.0
- MOOVA herbicidal effect rating (MOOVA (Monochoria); 0.2500 kg/ha): 9.0
- SAGPY herbicidal effect rating ([6]; 0.0313 kg/ha): 6.0
- SAGPY herbicidal effect rating ([6]; 0.0625 kg/ha): 9.0
- SAGPY herbicidal effect rating ([6]; 0.1250 kg/ha): 9.0
- SAGPY herbicidal effect rating ([6]; 0.2500 kg/ha): 9.0
- Herbicidal rating ECHORC ([7]; Rate 0.0313 kg/ha): 4.0
- Herbicidal rating ECHORC ([7]; Rate 0.0625 kg/ha): 5.0
- Herbicidal rating ECHORC ([7]; Rate 0.1250 kg/ha): 6.0
- Herbicidal rating ECHORC ([7]; Rate 0.2500 kg/ha): 6.0
- Herbicidal rating SAGPY ([8]; Rate 0.0313 kg/ha): 6.0
- Herbicidal rating SAGPY ([8]; Rate 0.0625 kg/ha): 9.0
- Herbicidal rating SAGPY ([8]; Rate 0.1250 kg/ha): 9.0
- Herbicidal rating SAGPY ([8]; Rate 0.2500 kg/ha): 9.0

SMILES: CC(C)S(=O)(=O)NC(=O)CC1SC(=Nc2cc(-n3c(=O)cc(C(F)(F)F)n(C)c3=O)c(F)cc2Cl)N(C)C1=O (stereo not shown) [Compound 119, 2-{{2-Chloro-5-[3,6-dihydro-3-methyl-2,6-dioxo-4-(trifluoromethyl)-1(2H)-pyrimidinyl]-4-fluorophenyl}imino}-N-(isopropylsulfonyl)-3-methyl-4-oxo-5-thiazolidineacetamide]
- Herbicidal rating AMBEL (AMBEL (Ragweed, Common); rate 0.0156 kg/ha): 9.0
- Herbicidal rating AMBEL (AMBEL (Ragweed, Common); rate 0.0313 kg/ha): 9.0
- Herbicidal rating AMBEL (AMBEL (Ragweed, Common); rate 0.0625 kg/ha): 9.0
- Herbicidal rating CASOB (CASOB (Sicklepod); rate 0.0156 kg/ha): 3.0
- Herbicidal rating CASOB (CASOB (Sicklepod); rate 0.0313 kg/ha): 5.0
- Herbicidal rating CASOB (CASOB (Sicklepod); rate 0.0625 kg/ha): 7.0
- Herbicidal rating GALAP (GALAP (Galium) [1]; rate 0.0156 kg/ha): 1.0
- Herbicidal rating GALAP (GALAP (Galium) [1]; rate 0.0313 kg/ha): 1.0
- Herbicidal rating GALAP (GALAP (Galium) [1]; rate 0.0625 kg/ha): 3.0
- Herbicidal rating GLXMAW ([2]; rate 0.0156 kg/ha): 7.0
- Herbicidal rating GLXMAW ([2]; rate 0.0313 kg/ha): 8.5
- Herbicidal rating GLXMAW ([2]; rate 0.0625 kg/ha): 8.5
- Herbicidal rating TRZAWR ([3]; rate 0.0156 kg/ha): 2.5
- Herbicidal rating TRZAWR ([3]; rate 0.0313 kg/ha): 3.5
- Herbicidal rating TRZAWR ([3]; rate 0.0625 kg/ha): 3.5
- Preemergence herbicidal rating GALAP (GALAP (Galium) [4]; rate 0.0156 kg/ha): 0.0
- Preemergence herbicidal rating GALAP (GALAP (Galium) [4]; rate 0.0313 kg/ha): 0.0
- Preemergence herbicidal rating GALAP (GALAP (Galium) [4]; rate 0.0625 kg/ha): 0.0
- Preemergence herbicidal rating GALAP (GALAP (Galium) [4]; rate 0.1250 kg/ha): 0.0
- Preemergence herbicidal rating GALAP (GALAP (Galium) [4]; rate 0.2500 kg/ha): 4.0
- Preemergence herbicidal rating SETVI (SETVI (Foxtail, Green); rate 0.0156 kg/ha): 0.0
- Preemergence herbicidal rating SETVI (SETVI (Foxtail, Green); rate 0.0313 kg/ha): 0.0
- Preemergence herbicidal rating SETVI (SETVI (Foxtail, Green); rate 0.0625 kg/ha): 2.0
- Preemergence herbicidal rating SETVI (SETVI (Foxtail, Green); rate 0.1250 kg/ha): 7.0
- Preemergence herbicidal rating SETVI (SETVI (Foxtail, Green); rate 0.2500 kg/ha): 7.0
- Preemergence herbicidal rating ORYSAT (ORYSAT (Rice, Tebonnet); rate 0.0156 kg/ha): 0.0
- Preemergence herbicidal rating ORYSAT (ORYSAT (Rice, Tebonnet); rate 0.0313 kg/ha): 0.0
- Preemergence herbicidal rating ORYSAT (ORYSAT (Rice, Tebonnet); rate 0.0625 kg/ha): 0.0
- Preemergence herbicidal rating ORYSAT (ORYSAT (Rice, Tebonnet); rate 0.1250 kg/ha): 0.0
- Preemergence herbicidal rating ORYSAT (ORYSAT (Rice, Tebonnet); rate 0.2500 kg/ha): 0.0
- herbicidal effect rating, ECHORC ([5]; 0.0313 kg/ha): 8.0
- herbicidal effect rating, ECHORC ([5]; 0.0625 kg/ha): 9.0
- herbicidal effect rating, ECHORC ([5]; 0.1250 kg/ha): 9.0
- herbicidal effect rating, ECHORC ([5]; 0.2500 kg/ha): 9.0
- herbicidal effect rating, CYPSE (CYPSE (Flatsedge); 0.0313 kg/ha): 0.0
- herbicidal effect rating, CYPSE (CYPSE (Flatsedge); 0.0625 kg/ha): 0.0
- herbicidal effect rating, CYPSE (CYPSE (Flatsedge); 0.1250 kg/ha): 0.0
- herbicidal effect rating, CYPSE (CYPSE (Flatsedge); 0.2500 kg/ha): 1.0
- herbicidal effect rating, MOOVA (MOOVA (Monochoria); 0.0313 kg/ha): 7.5
- herbicidal effect rating, MOOVA (MOOVA (Monochoria); 0.0625 kg/ha): 8.0
- herbicidal effect rating, MOOVA (MOOVA (Monochoria); 0.1250 kg/ha): 9.0
- herbicidal effect rating, MOOVA (MOOVA (Monochoria); 0.2500 kg/ha): 9.0
- herbicidal effect rating, SAGPY ([6]; 0.0313 kg/ha): 2.5
- herbicidal effect rating, SAGPY ([6]; 0.0625 kg/ha): 3.0
- herbicidal effect rating, SAGPY ([6]; 0.1250 kg/ha): 3.5
- herbicidal effect rating, SAGPY ([6]; 0.2500 kg/ha): 4.5
- Herbicidal rating ECHORC ([7]; Rate 0.0313 kg/ha): 0.0
- Herbicidal rating ECHORC ([7]; Rate 0.0625 kg/ha): 2.0
- Herbicidal rating ECHORC ([7]; Rate 0.1250 kg/ha): 4.0
- Herbicidal rating ECHORC ([7]; Rate 0.2500 kg/ha): 4.0
- Herbicidal rating SAGPY ([8]; Rate 0.0313 kg/ha): 0.0
- Herbicidal rating SAGPY ([8]; Rate 0.0625 kg/ha): 0.0
- Herbicidal rating SAGPY ([8]; Rate 0.1250 kg/ha): 0.0
- Herbicidal rating SAGPY ([8]; Rate 0.2500 kg/ha): 0.0
